From ChEMBL document CHEMBL1201862, “PubChem BioAssay data set” (2004)
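These data come from cells grown in 96-well plates and exposed to compound for 48 hours at five concentrations. GI50 marks 50% less growth.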 Activity calls are given as the source filed them. No stated cut-off is given here; in the data, active = GI50 up to about 1.1 µM and inactive = higher.

Key:
Test in all cases: NCI tumour cell line growth inhibition, 48 h
HCT-15 = system: HCT-15
COLO 205 = system: COLO 205
TK-10 = system: TK-10
DLD-1 = system: DLD-1
RXF 631 = system: RXF 631
U-251 = system: U-251
DMS-114 = system: DMS-114
SNB-75 = system: SNB-75
Malme-3M = system: Malme-3M
EKVX = system: EKVX
DMS-273 = system: DMS-273
HT-29 = system: HT-29
RXF 393 = system: RXF 393
LOX IMVI = system: LOX IMVI
KM12 = system: KM12
CAKI-1 = system: CAKI-1
XF498 = system: XF498
RPMI-8226 = system: RPMI-8226
KM-20L2 = system: KM-20L2
UO-31 = system: UO-31
HOP-92 = system: HOP-92
NCI-H460 = system: NCI-H460
LXFL 529 = system: LXFL 529
SF-295 = system: SF-295
UACC-62 = system: UACC-62
HCC 2998 = system: HCC 2998
SW-620 = system: SW-620
SNB-19 = system: SNB-19
CCRF-CEM = system: CCRF-CEM
OVCAR-4 = system: OVCAR-4
NCI-H226 = system: NCI-H226
786-0 = system: 786-0
K562 = system: K562
SK-OV-3 = system: SK-OV-3
A549 = system: A549
HL-60 = system: HL-60
HOP-18 = system: HOP-18
SK-MEL-2 = system: SK-MEL-2
SF-268 = system: SF-268
HOP-62 = system: HOP-62
ACHN = system: ACHN
SK-MEL-28 = system: SK-MEL-28
SNB-78 = system: SNB-78
UACC-257 = system: UACC-257
A498 = system: A498
SK-MEL-5 = system: SK-MEL-5
OVCAR-3 = system: OVCAR-3
M19-MEL = system: M19-MEL
M14 = system: M14
MOLT-4 = system: MOLT-4
NCI-H23 = system: NCI-H23
IGROV-1 = system: IGROV-1
SN12C = system: SN12C
OVCAR-8 = system: OVCAR-8
NCI-H522 = system: NCI-H522
SF-539 = system: SF-539
OVCAR-5 = system: OVCAR-5
HCT-116 = system: HCT-116

## Cc1ccc(S(=O)(=O)c2ccccn2)cc1
HCT-15
  GI50: > 100 µM
COLO 205
  GI50: > 100 µM (inactive)
TK-10
  GI50: > 100 µM (inactive)
DLD-1
  GI50: > 100 µM (inactive)
RXF 631
  GI50: > 100 µM (inactive)
U-251
  GI50: > 100 µM (inactive)
DMS-114
  GI50: > 100 µM (inactive)
SNB-75
  GI50: 90.8 µM (inactive)
Malme-3M
  GI50: > 100 µM (inactive)
EKVX
  GI50: > 100 µM (inactive)
DMS-273
  GI50: > 100 µM (inactive)
HT-29
  GI50: > 100 µM (inactive)
RXF 393
  GI50: > 100 µM (inactive)
LOX IMVI
  GI50: > 100 µM (inactive)
KM12
  GI50: > 100 µM (inactive)
CAKI-1
  GI50: > 100 µM (inactive)
XF498
  GI50: > 100 µM (inactive)
RPMI-8226
  GI50: > 100 µM (inactive)
KM-20L2
  GI50: > 100 µM (inactive)
UO-31
  GI50: > 100 µM (inactive)
HOP-92
  GI50: > 100 µM (inactive)
NCI-H460
  GI50: > 100 µM (inactive)
LXFL 529
  GI50: > 100 µM (inactive)
SF-295
  GI50: > 100 µM (inactive)
UACC-62
  GI50: > 100 µM (inactive)
HCC 2998
  GI50: > 100 µM (inactive)
SW-620
  GI50: > 100 µM (inactive)
SNB-19
  GI50: > 100 µM (inactive)
CCRF-CEM
  GI50: > 100 µM (inactive)
OVCAR-4
  GI50: > 100 µM (inactive)
NCI-H226
  GI50: > 100 µM (inactive)
786-0
  GI50: > 100 µM (inactive)
K562
  GI50: > 100 µM (inactive)
SK-OV-3
  GI50: > 100 µM (inactive)
A549
  GI50: > 100 µM (inactive)
HL-60
  GI50: > 100 µM (inactive)
HOP-18
  GI50: > 100 µM (inactive)
SK-MEL-2
  GI50: > 100 µM (inactive)
SF-268
  GI50: > 100 µM (inactive)
HOP-62
  GI50: > 100 µM (inactive)
ACHN
  GI50: > 100 µM (inactive)
SK-MEL-28
  GI50: > 100 µM (inactive)
SNB-78
  GI50: > 100 µM (inactive)
UACC-257
  GI50: > 100 µM (inactive)
A498
  GI50: > 100 µM (inactive)
SK-MEL-5
  GI50: > 100 µM (inactive)
OVCAR-3
  GI50: > 100 µM (inactive)
M19-MEL
  GI50: > 100 µM (inactive)
M14
  GI50: > 100 µM (inactive)
MOLT-4
  GI50: > 100 µM (inactive)
NCI-H23
  GI50: > 100 µM (inactive)
IGROV-1
  GI50: > 100 µM (inactive)
SN12C
  GI50: > 100 µM (inactive)
OVCAR-8
  GI50: > 100 µM (inactive)
NCI-H522
  GI50: > 100 µM (inactive)
SF-539
  GI50: > 100 µM (inactive)
OVCAR-5
  GI50: 46.5 µM (inactive)
HCT-116
  GI50: > 100 µM (inactive)
